Experiments:
soybean = assay: Test B pre/postemergence soybean; type: in vivo, Glycine max
Summary of the method: (§1)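 Test chemicals in a non-phytotoxic solvent mixture with surfactant were sprayed preemergence onto planted seeds and postemergence onto plants 2 to 18 cm tall (1- to 4-leaf stage). After twelve to sixteen days in a greenhouse, injury was visually rated against untreated controls from 0 (no effect) to 10 (complete control).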

bedstraw = assay: Test B pre/postemergence bedstraw; type: in vivo, Galium aparine
Summary of the method: as §1

wild oat = assay: Test B pre/postemergence wild oat; type: in vivo, Avena fatua
Summary of the method: as §1

bamyardgrass = assay: Test B flood test barnyardgrass; type: in vivo, Echinochloa crus-galli
Summary of the method: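 Flood test on plants grown to the 2-leaf stage; treated plants kept in greenhouse twelve to sixteen days, then visually rated against controls on a 0 (no effect) to 10 (complete control) scale.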

[1] = Preemergence, Rate 62 g/ha, scale of 0 to 10 where 0 is no effect and 10 is complete control
[2] = Preemergence, Rate 250 g/ha, scale of 0 to 10 where 0 is no effect and 10 is complete control
[3] = Preemergence, Rate 500 g/ha, scale of 0 to 10 where 0 is no effect and 10 is complete control
[4] = Rate 125 g/ha, Postemergence, scale of 0 to 10 where 0 is no effect and 10 is complete control
[5] = Rate 125 g/ha, Preemergence, scale of 0 to 10 where 0 is no effect and 10 is complete control
[6] = Rate 250 g/ha, Postemergence, scale of 0 to 10 where 0 is no effect and 10 is complete control
[7] = Rate 62 g/ha, headed Pre-emergence (flood test species), scale 0 to 10 (0 no effect, 10 complete control)
[8] = Rate 125 g/ha, Pre-emergence, flood test species, scale 0 to 10 where 0 is no effect and 10 is complete control
[9] = Rate 250 g/ha, Pre-emergence, flood-test species, scale 0 to 10, 0 is no effect, 10 is complete control
[10] = Rate 500 g/ha, Pre-emergence, flood test species, scale 0 to 10 (0 no effect, 10 complete control)
[11] = Postemergence, Rate 31 g/ha, visual rating, scale 0 to 10 (0 no effect, 10 complete control)
[12] = Preemergence, Rate 31 g/ha, visual rating, scale 0 to 10 (0 no effect, 10 complete control)
[13] = Rate 62 g/ha, Postemergence, scale 0 to 10 (0 no effect, 10 complete control)

Cc1ccccc1-n1c(=O)on(C(=O)N(c2ccc(Oc3ccccc3)cc2)C(C)C)c1=O [Compound 268]
0: Soybean plant response rating (soybean; [1]) | Soybean plant response rating (soybean; [2]) | Plant response rating, Soybean (soybean; [3]) | Soybean plant response rating (soybean; [4]) | Soybean plant response rating (soybean; [5]) | Plant response rating, Soybean (soybean; [6]) | Bedstraw plant response rating (bedstraw; [1]) | Bedstraw plant response rating (bedstraw; [2]) | Plant response rating, Bedstraw (bedstraw; [3]) | Bedstraw plant response rating (bedstraw; Rate 62 g/ha, Postemergence, scale of 0 to 10 where 0 is no effect and 10 is complete control) | Bedstraw plant response rating (bedstraw; [4]) | Bedstraw plant response rating (bedstraw; [5]) | Plant response rating, Bedstraw (bedstraw; [6]) | Wild oats plant response rating (wild oat; [1]) | Wild oats plant response rating (wild oat; [2]) | Plant response rating, Wild oats (wild oat; [3]) | Wild oats plant response rating (wild oat; [4]) | Plant response rating, Wild oats (wild oat; [6]) | Barnyardgrass plant response rating (bamyardgrass; [7]) | Barnyardgrass plant response rating (bamyardgrass; [8]) | Barnyardgrass plant response rating (bamyardgrass; [9]) | Barnyardgrass plant response rating (bamyardgrass; [10])

CC(C)N(C(=O)n1oc(=O)n(CCCCF)c1=O)c1ccc(F)cc1 [Compound 289]
8: Plant response rating, Bedstraw (bedstraw; [6]) | Wild oats plant response rating (wild oat; [2])
2: Soybean plant response rating (soybean; [13])
3: Soybean plant response rating (soybean; [4]) | Bedstraw plant response rating (bedstraw; [4]) | Wild oats plant response rating (wild oat; [4]) | Plant response rating, Wild oats (wild oat; [6]) | Barnyardgrass plant response rating (bamyardgrass; [9])
1: Wild oats plant response rating (wild oat; [1])
0: Soybean plant response rating (soybean; [11]) | Soybean plant response rating (soybean; [12]) | Soybean plant response rating (soybean; [1]) | Soybean plant response rating (soybean; [2]) | Soybean plant response rating (soybean; [5]) | Bedstraw plant response rating (bedstraw; [11]) | Bedstraw plant response rating (bedstraw; [12]) | Bedstraw plant response rating (bedstraw; [1]) | Bedstraw plant response rating (bedstraw; [13]) | Wild oats plant response rating (wild oat; [11]) | Wild oats plant response rating (wild oat; [12]) | Wild oats plant response rating (wild oat; [13]) | Barnyardgrass plant response rating (bamyardgrass; Rate 31 g/ha, Pre-emergence section (flood test species), scale 0 to 10) | Barnyardgrass plant response rating (bamyardgrass; [7]) | Barnyardgrass plant response rating (bamyardgrass; [8])
4: Plant response rating, Soybean (soybean; [6]) | Bedstraw plant response rating (bedstraw; [5])
7: Bedstraw plant response rating (bedstraw; [2])

CCN(C(=O)n1oc(=O)n(C2CC2)c1=O)C1CCCCC1 [Compound 298]
0: Soybean plant response rating (soybean; [1]) | Soybean plant response rating (0 to 10 scale) (soybean; Preemergence, Rate 125 g/ha) | Soybean plant response rating (soybean; [2]) | Plant response rating, Soybean (soybean; [3]) | Soybean plant response rating (soybean; [13]) | Bedstraw plant response rating (0 to 10 scale) (bedstraw; Preemergence, Rate 125 g/ha) | Bedstraw plant response rating (bedstraw; [13]) | Bedstraw plant response rating (bedstraw; [4]) | Wild oats plant response rating (wild oat; [1]) | Wild oats plant response rating (0 to 10 scale) (wild oat; Preemergence, Rate 125 g/ha) | Wild oats plant response rating (wild oat; [2]) | Plant response rating, Wild oats (wild oat; [3]) | Wild oats plant response rating (wild oat; [13]) | Wild oats plant response rating (wild oat; [4]) | Plant response rating, Wild oats (wild oat; [6]) | Barnyardgrass plant response rating (bamyardgrass; [7]) | Barnyardgrass plant response rating (bamyardgrass; [8]) | Barnyardgrass plant response rating (bamyardgrass; [9]) | Barnyardgrass plant response rating (bamyardgrass; [10])
3: Soybean plant response rating (soybean; [4]) | Plant response rating, Soybean (soybean; [6])

Cc1cccc(C(C)(C)C)c1-n1c(=O)on(C(=O)N(c2ccccc2)C(C)C)c1=O [Compound 303]
2: Soybean plant response rating (soybean; [13]) | Soybean plant response rating (soybean; [4])
3: Plant response rating, Soybean (soybean; [6])
0: Soybean plant response rating (soybean; [1]) | Soybean plant response rating (0 to 10 scale) (soybean; Preemergence, Rate 125 g/ha) | Soybean plant response rating (soybean; [2]) | Soybean plant response rating (soybean; [3]) | Bedstraw plant response rating (bedstraw; [1]) | Bedstraw plant response rating (0 to 10 scale) (bedstraw; Preemergence, Rate 125 g/ha) | Bedstraw plant response rating (bedstraw; [2]) | Bedstraw plant response rating (bedstraw; [4]) | Bedstraw plant response rating (bedstraw; Rate 500 g/ha, Postemergence, scale 0 to 10, 0 no effect, 10 complete control) | Wild oats plant response rating (wild oat; [1]) | Wild oats plant response rating (0 to 10 scale) (wild oat; Preemergence, Rate 125 g/ha) | Wild oats plant response rating (wild oat; [2]) | Wild oats plant response rating (wild oat; [3]) | Wild oats plant response rating (wild oat; [13]) | Wild oats plant response rating (wild oat; [4]) | Plant response rating, Wild oats (wild oat; [6]) | Barnyardgrass plant response rating (bamyardgrass; [7]) | Barnyardgrass plant response rating (bamyardgrass; [8]) | Barnyardgrass plant response rating (bamyardgrass; [9]) | Barnyardgrass plant response rating (bamyardgrass; [10])

Reference: US6737383B1, “Herbicidal oxadiazolidines” (priority 1999, dated 2004)
